Assay: recombinant UMI read abundance after kanamycin selection (control-corrected) (log10(CPM+1)); higher = more efficient recombination; extreme values may be limits of the assay; sequences stand for … in AGTGCAGAGAAAATCGGCCAGTTTTCTCTGCCTGCAGTCCGCATGCCGTGGGACCCCTTGGGTTCTAACCTGTTGCCTAGATTTATGCAGCGGACTGCCTTTCTCCCAAAGTGATAAACCGG…AGGTTGGTTTCACT; site = the 11-nt donor
How it was run: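 Pooled Escherichia coli screen of donor and donor-binding-loop pairs for the IS621 bridge recombinase. Each pair sits with a 12-nt UMI on a plasmid carrying a promoterless kanamycin gene. The library was co-electroporated with a target plasmid encoding a fixed target and T7-inducible recombinase, then plated with IPTG (0.07 mM) plus kanamycin, or unselected, each in two replicates. Recombinant UMIs were PCR-amplified across the donor–target junction and sequenced. Counts became CPM, averaged over replicates, scaled by control-derived factors and reported as log10(CPM+1).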
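Further: IS621 bridge recombinase in Escherichia coli cells against a fixed T5 target plasmid.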

Sequence	recombinant UMI read abundance (log10)
GATTGGTCATGGACCGGTTTTCCCGGTAATCCGTATTTGAC (site GATTGGGCTGT)	0
GATTGGTCATGGACCGGTTTTCCCGGTAATCCGTATTTGAC (site GATTGGTCTGT)	0
GATTTGCCATGGACCGGTTTTCCCGGTAATCCGTATTTGGA (site GATTTGCCTTC)	0.0059
GATTTGGCATGGACCGGTTTTCCCGGTAATCCGTATTTGTG (site AATTTGGCTCA)	0.142
GATTTGGCATGGACCGGTTTTCCCGGTAATCCGTATTTGTG (site CATTTGGCTCA)	0.309
GATTTGGCATGGACCGGTTTTCCCGGTAATCCGTATTTGTG (site GATTTGGCTCA)	0.152
GATTTGGCATGGACCGGTTTTCCCGGTAATCCGTATTTGTG (site TATTTGGCTCA)	0.0288
GCAAAAGCATGGACCGGTTTTCCCGGTAATCCGTATTTGCC (site GCAAAAGCTGG)	0.282
GCAACCTCATGGACCGGTTTTCCCGGTAATCCGTATTTGCT (site GCAACCTCTAG)	1.91
GCAACTGCATGGACCGGTTTTCCCGGTAATCCGTATTTGGC (site GCAACTGCTGC)	1.95
GCAAGAACATGGACCGGTTTTCCCGGTAATCCGTATTTGAC (site GCAAGAACTGT)	2.57
GCAAGCGCATGGACCGGTTTTCCCGGTAATCCGTATTTGAT (site GCAAGCGCTAT)	2.29
GCACCATCATGGACCGGTTTTCCCGGTAATCCGTATTTGTA (site GCACCATCTTA)	2.47
GCACGACCATGGACCGGTTTTCCCGGTAATCCGTATTTGGG (site GCACGACCTCC)	0.0133
GCACGCGCATGGACCGGTTTTCCCGGTAATCCGTATTTGGT (site GCACGCGCTAC)	1.22
GCAGATTCATGGACCGGTTTTCCCGGTAATCCGTATTTGGG (site GCAGATTCTCC)	0.609
GCAGGTACATGGACCGGTTTTCCCGGTAATCCGTATTTGAC (site GAAGGTACTGT)	0.00935
GCAGGTACATGGACCGGTTTTCCCGGTAATCCGTATTTGAC (site GCAGGTACTGT)	1.91
GCAGGTACATGGACCGGTTTTCCCGGTAATCCGTATTTGAC (site GGAGGTACTGT)	0
GCAGGTACATGGACCGGTTTTCCCGGTAATCCGTATTTGAC (site GTAGGTACTGT)	2.1
GCAGTAACATGGACCGGTTTTCCCGGTAATCCGTATTTGCA (site ACAGTATCTTG)	0.498
GCAGTAACATGGACCGGTTTTCCCGGTAATCCGTATTTGCA (site GCAGTAACTTG)	2.83
GCAGTCCCATGGACCGGTTTTCCCGGTAATCCGTATTTGCC (site GCAGTCCCTGG)	0
GCAGTCGCATGGACCGGTTTTCCCGGTAATCCGTATTTGCG (site GAAGTCGCTCG)	0.00976
GCAGTCGCATGGACCGGTTTTCCCGGTAATCCGTATTTGCG (site GCAGTCGCTCG)	0.764

Sequence	recombinant UMI read abundance (log10)
GCAGTCGCATGGACCGGTTTTCCCGGTAATCCGTATTTGCG (site GGAGTCGCTCG)	0.00641
GCAGTCGCATGGACCGGTTTTCCCGGTAATCCGTATTTGCG (site GTAGTCGCTCG)	0.0117
GCAGTCTCATGGACCGGTTTTCCCGGTAATCCGTATTTGCA (site ACAGTATCTTG)	2.38
GCAGTCTCATGGACCGGTTTTCCCGGTAATCCGTATTTGCA (site GCAGTCTCTTG)	2.87
GCATATCCATGGACCGGTTTTCCCGGTAATCCGTATTTGAC (site GCATATCCTGT)	1.39
GCATCGGCATGGACCGGTTTTCCCGGTAATCCGTATTTGCC (site GCATCGGCTGG)	0.599
GCCAACTCATGGACCGGTTTTCCCGGTAATCCGTATTTGCG (site GCCAACTCTCG)	1.98
GCCAATTCATGGACCGGTTTTCCCGGTAATCCGTATTTGGG (site GCCAATTCTCC)	0.183
GCCACAGCATGGACCGGTTTTCCCGGTAATCCGTATTTGCT (site GCCACAGCTAG)	1.2
GCCACGCCATGGACCGGTTTTCCCGGTAATCCGTATTTGTA (site ACCACGCCTTA)	0.145
GCCACGCCATGGACCGGTTTTCCCGGTAATCCGTATTTGTA (site CCCACGCCTTA)	0.0175
GCCACGCCATGGACCGGTTTTCCCGGTAATCCGTATTTGTA (site GACACGCCTTA)	0.0176
GCCACGCCATGGACCGGTTTTCCCGGTAATCCGTATTTGTA (site GCAACGCCTTA)	0
GCCACGCCATGGACCGGTTTTCCCGGTAATCCGTATTTGTA (site GCCAAGCCTTA)	0.00579
GCCACGCCATGGACCGGTTTTCCCGGTAATCCGTATTTGTA (site GCCACACCTTA)	0.00375
GCCACGCCATGGACCGGTTTTCCCGGTAATCCGTATTTGTA (site GCCACCCCTTA)	0.0213
GCCACGCCATGGACCGGTTTTCCCGGTAATCCGTATTTGTA (site GCCACGACTTA)	0.00736
GCCACGCCATGGACCGGTTTTCCCGGTAATCCGTATTTGTA (site GCCACGCCTAA)	0.0376
GCCACGCCATGGACCGGTTTTCCCGGTAATCCGTATTTGTA (site GCCACGCCTCA)	0.00817
GCCACGCCATGGACCGGTTTTCCCGGTAATCCGTATTTGTA (site GCCACGCCTGA)	0
GCCACGCCATGGACCGGTTTTCCCGGTAATCCGTATTTGTA (site GCCACGCCTTA)	0.289
GCCACGCCATGGACCGGTTTTCCCGGTAATCCGTATTTGTA (site GCCACGCCTTC)	0.00289
GCCACGCCATGGACCGGTTTTCCCGGTAATCCGTATTTGTA (site GCCACGCCTTG)	0.0133
GCCACGCCATGGACCGGTTTTCCCGGTAATCCGTATTTGTA (site GCCACGCCTTT)	0.0209
GCCACGCCATGGACCGGTTTTCCCGGTAATCCGTATTTGTA (site GCCACGGCTTA)	0.0146

Sequence	recombinant UMI read abundance (log10)
GCCACGCCATGGACCGGTTTTCCCGGTAATCCGTATTTGTA (site GCCACGTCTTA)	1.45
GCCACGCCATGGACCGGTTTTCCCGGTAATCCGTATTTGTA (site GCCACTCCTTA)	0
GCCACGCCATGGACCGGTTTTCCCGGTAATCCGTATTTGTA (site GCCAGGCCTTA)	0.013
GCCACGCCATGGACCGGTTTTCCCGGTAATCCGTATTTGTA (site GCCATGCCTTA)	0.465
GCCACGCCATGGACCGGTTTTCCCGGTAATCCGTATTTGTA (site GCCCCGCCTTA)	0.00659
GCCACGCCATGGACCGGTTTTCCCGGTAATCCGTATTTGTA (site GCCGCGCCTTA)	0.00414
GCCACGCCATGGACCGGTTTTCCCGGTAATCCGTATTTGTA (site GCCTCGCCTTA)	0.183
GCCACGCCATGGACCGGTTTTCCCGGTAATCCGTATTTGTA (site GCGACGCCTTA)	0.00719
GCCACGCCATGGACCGGTTTTCCCGGTAATCCGTATTTGTA (site GCTACGCCTTA)	0.0265
GCCACGCCATGGACCGGTTTTCCCGGTAATCCGTATTTGTA (site GGCACGCCTTA)	0.204
GCCACGCCATGGACCGGTTTTCCCGGTAATCCGTATTTGTA (site GTCACGCCTTA)	0.00531
GCCACGCCATGGACCGGTTTTCCCGGTAATCCGTATTTGTA (site TCCACGCCTTA)	0.00575
GCCACTCCATGGACCGGTTTTCCCGGTAATCCGTATTTGGG (site GCCACTCCTCC)	0.0141
GCCACTCCATGGACCGGTTTTCCCGGTAATCCGTATTTGTA (site GCCACACCTTA)	0.0288
GCCACTCCATGGACCGGTTTTCCCGGTAATCCGTATTTGTA (site GCCACCCCTTA)	0.0122
GCCACTCCATGGACCGGTTTTCCCGGTAATCCGTATTTGTA (site GCCACGCCTTA)	0.00354
GCCACTCCATGGACCGGTTTTCCCGGTAATCCGTATTTGTA (site GCCACTCCTTA)	1.35
GCCAGGCCATGGACCGGTTTTCCCGGTAATCCGTATTTGAA (site GCCAGGCCTTT)	0.0165
GCCCAATCATGGACCGGTTTTCCCGGTAATCCGTATTTGGT (site GCCCAATCTAC)	1.53
GCCCAGCCATGGACCGGTTTTCCCGGTAATCCGTATTTGGT (site GCCCAGCCTAC)	0.0164
GCCCGCTCATGGACCGGTTTTCCCGGTAATCCGTATTTGCG (site GCCCGCTCTCG)	2.44
GCCCGTACATGGACCGGTTTTCCCGGTAATCCGTATTTGCT (site GCCCGTACTAG)	2.32
GCCCTTGCATGGACCGGTTTTCCCGGTAATCCGTATTTGAC (site GCCCTTGCTGT)	1.06
GCCGATGCATGGACCGGTTTTCCCGGTAATCCGTATTTGGA (site GCCGATGCTTC)	1.45
GCCGCGGCATGGACCGGTTTTCCCGGTAATCCGTATTTGGA (site GCCGCGGCTTC)	0.468

Source: the supplement of paper PMC11208160
